“And” between values parts separate entries of the source, which are not always exact repeats. Equal entries are not always repeated. “Also recorded” adds a separate entry of the source.
Experiments:
Assay type in all cases: in vivo
[1] = tested on: rat model of breast hyperplasia; test: Nipple diameter and height in rat model of breast hyperplasia; settings: for Nipple Height / Nipple Diameter: female SD rats, gavage, tezacaftor 40 mg/kg/day, tamoxifen 4 mg/kg/day; for Nipple Diameter: in mm (unit assumed); for Change in nipple diameter compared with the model group / Change in nipple height compared with the model group: after 30 days of administration, result in words
From the text: (§1) Study Design: Thirty-two female SD rats, aged 7-8 weeks and weighing 200-250 g, were used. The rats were randomly divided into four groups: a normal control group, a model group, a tezacaftor treatment group (hereinafter referred to as the “treatment group”), and a tamoxifen treatment group (hereinafter referred to as the “positive control group”).
(§2) Before administration of the test drugs, breast hyperplasia was induced in the rats of the model group, the treatment group, and the positive control group. Specifically, estradiol benzoate injection was intramuscularly administered to the inner thigh of each rat at a dose of 0.5 mg/kg/day for 25 consecutive days. Starting on day 26, progesterone injection was intramuscularly administered to the inner thigh at a dose of 5 mg/kg/day for 5 consecutive days. The total modeling period was 30 days.
(§3) Normal control group: Normal saline in an equal volume was intramuscularly administered to the inner side of the hind limb of each rat once daily for 30 consecutive days, with the left and right hind limbs injected alternately. Beginning on day 31, normal saline was administered by gavage for 30 days.
(§4) Model group: Beginning on day 31, the vehicle was administered by gavage for 30 consecutive days. Samples were collected 0.5 hour after the last administration.
(§5) Treatment group: Beginning on day 31, tezacaftor was administered by gavage at a dose of 40 mg/kg/day for 30 consecutive days. Samples were collected 0.5 hour after the last administration.
(§6) Positive control group: Beginning on day 31, tamoxifen was administered by gavage at a dose of 4 mg/kg/day for 30 consecutive days. Samples were collected 0.5 hour after the last administration.
Evaluation indices: (1) nipple diameter and height; (2) ovarian index and uterine index; (3) changes in serum E2 and PROG levels; and (4) the number of mammary lobular acini, the acinar lumen diameter, and the duct diameter in rats. […]

[2] = tested on: rat model of breast hyperplasia; test: Histopathological evaluation (H&E) of mammary glands in rat model of breast hyperplasia; set-up: key to Histopathological Examination Score of mammary gland: Absence of a lesion was scored as 0; 1: very slight; 2: mild; 3: moderate; 4: severe; settings: after 30 days of administration; for Breast hyperplasia compared with the model group: H&E pathology, result in words; for Histopathological Examination Score of mammary gland: individual animals No. 1-8, H&E staining
From the text: as §1, §2, §3, §4, §5, §6
(§7) Evaluation indices: (1) nipple diameter and height; (2) ovarian index and uterine index; (3) changes in serum E2 and PROG levels; and (4) the number of mammary lobular acini, the acinar lumen diameter, and the duct diameter in rats.
In the study of Embodiment 1, after 30 days of administration, mammary gland tissues from rats in each group were collected, dehydrated, embedded, and sectioned. The sections were subjected to H&E staining and pathological analysis.

[3] = tested on: rat model of breast hyperplasia; test: Serum E2 and PROG levels in rat model of breast hyperplasia; settings: after 30 days of administration; assay kit; result in words
From the text: as §1, §2, §3, §4, §5, §6, §7
In the study of Embodiment 1, after 30 days of administration, serum E2 and PROG levels in rats of each group were measured using assay kits.

[4] = tested on: rat model of breast hyperplasia; test: Ovarian index and uterine index in rat model of breast hyperplasia; settings: after 30 days of administration; for Ovarian index (ovary weight/body weight) / Uterine index (uterine weight/body weight): gavage, tezacaftor 40 mg/kg/day, tamoxifen 4 mg/kg/day; for Change in ovarian index compared with the model group / Change in uterine index compared with the model group: result in words
From the text: as §1, §2, §3, §4, §5, §6, §7
In the study of Embodiment 1, after 30 days of administration, the uterus weight, ovary weight, and body weight of the rats were measured. The uterine index was calculated as uterine weight/body weight, and the ovarian index was calculated as ovary weight/body weight. A comparison of the ovarian index and uterine index among the different groups is shown in FIG. 2, and the corresponding data are presented in Table 3.

[5] = Day 0 of treatment (baseline after modeling)

Question: For `CC/C(=C(\c1ccccc1)c1ccc(OCCN(C)C)cc1)c1ccccc1` [tamoxifen], which “Nipple Height” value [1, 5] is on record?
Answer: The value was 1.94 ± 0.16 mm.

Question: And the “Nipple Diameter” value [1, 5]?
Answer: Its value is 1.63 ± 0.12.

Question: And the “Nipple Height” value ([1]; Day 15 of treatment)?
Answer: The value was 1.70 ± 0.17 mm.

Question: And the “Nipple Diameter” value ([1]; Day 15 of treatment)?
Answer: Its value is 1.28 ± 0.14.

Question: And the “Nipple Height” value ([1]; Day 30 of treatment)?
Answer: Its value is 1.56 ± 0.12 mm.

Question: And the “Nipple Diameter” value ([1]; Day 30 of treatment)?
Answer: Its value is 1.11 ± 0.10.

Question: And the “Change in nipple diameter compared with the model group” value [1]?
Answer: The value was “decreases”.

Question: And the “Change in nipple height compared with the model group” value [1]?
Answer: Its value is “decreases”.

Question: What about the “Breast hyperplasia compared with the model group” value [2] of the same molecule?
Answer: Its value is “alleviated”.

Question: And the “Histopathological Examination Score of mammary gland” value [2]?
Answer: The value was 0 and 1 (4×) and 2 (3×).

Question: And the “Serum E2 level compared with the model group” value [3]?
Answer: The value was “significantly decreased”.

Question: What about the “Serum PROG level compared with the model group” value [3] of the same molecule?
Answer: Its value is “significantly increased”.

Question: What about the “Ovarian index (ovary weight/body weight)” value [4] of the same molecule?
Answer: Its value is 0.145 ± 0.052%.

Question: What about the “Uterine index (uterine weight/body weight)” value [4] of the same molecule?
Answer: The value was 0.050 ± 0.015 %.

Question: And the “Change in ovarian index compared with the model group” value [4]?
Answer: Its value is “decreases”.

Question: What about the “Change in uterine index compared with the model group” value [4] of the same molecule?
Answer: Its value is “decreases”.

Question: What does the source list for `CC(C)(CO)c1cc2cc(NC(=O)C3(c4ccc5c(c4)OC(F)(F)O5)CC3)c(F)cc2n1C[C@@H](O)CO` [tezacaftor]?
Answer: Nipple Height [1, 5]: 2.03 ± 0.12 mm; Nipple Diameter [1, 5]: 1.63 ± 0.14; Nipple Height ([1]; Day 15 of treatment): 1.73 ± 0.21 mm; Nipple Diameter ([1]; Day 15 of treatment): 1.24 ± 0.13; Nipple Height ([1]; Day 30 of treatment): 1.61 ± 0.13 mm; Nipple Diameter ([1]; Day 30 of treatment): 1.12 ± 0.08; Change in nipple diameter compared with the model group [1]: significantly reduced; also recorded: decreases; Change in nipple height compared with the model group [1]: significantly reduced; also recorded: decreases; Breast hyperplasia compared with the model group [2]: alleviated; also recorded: alleviating breast hyperplasia; Histopathological Examination Score of mammary gland [2]: 1 (4×) and 2 (4×); Serum E2 level compared with the model group [3]: significantly decreased; also recorded: significantly improved; Serum PROG level compared with the model group [3]: significantly increased; also recorded: significantly improved; Ovarian index (ovary weight/body weight) [4]: 0.186 ± 0.088%; Uterine index (uterine weight/body weight) [4]: 0.055 ± 0.012 %; Change in ovarian index compared with the model group [4]: decreases; Change in uterine index compared with the model group [4]: significantly reduced; also recorded: decreases
